{"source": "ChEMBL document CHEMBL1143264", "about": "(Bioorg Med Chem Lett, 2009)", "format_in_all_cases": "cell membranes", "key": {"[1]": {"biological_target": "Neuronal acetylcholine receptor subunit alpha-7 (Rattus norvegicus, UniProt Q05941)", "sequence (Q05941 whole entry)": "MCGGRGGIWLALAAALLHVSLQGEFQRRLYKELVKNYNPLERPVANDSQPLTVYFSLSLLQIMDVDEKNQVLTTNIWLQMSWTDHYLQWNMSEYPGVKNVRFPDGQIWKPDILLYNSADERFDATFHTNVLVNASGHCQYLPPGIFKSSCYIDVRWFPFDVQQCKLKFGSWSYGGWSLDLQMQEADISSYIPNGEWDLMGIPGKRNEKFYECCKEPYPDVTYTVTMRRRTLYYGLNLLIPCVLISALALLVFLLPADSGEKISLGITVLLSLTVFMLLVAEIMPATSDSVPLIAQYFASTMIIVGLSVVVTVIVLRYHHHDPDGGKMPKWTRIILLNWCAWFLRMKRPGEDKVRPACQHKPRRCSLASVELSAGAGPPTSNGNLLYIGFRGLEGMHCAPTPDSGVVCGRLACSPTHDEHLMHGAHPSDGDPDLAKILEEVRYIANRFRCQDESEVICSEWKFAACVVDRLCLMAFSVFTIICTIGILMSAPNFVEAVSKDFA", "assay": "Displacement of [125I]alpha-Bungarotoxin from alpha-7 nAchR in rat brain cortex membrane"}, "[2]": {"biological_target": "Neuronal acetylcholine receptor; alpha4/beta2 (Rattus norvegicus, UniProt P09483+P12390)", "sequence (P09483 whole entry)": "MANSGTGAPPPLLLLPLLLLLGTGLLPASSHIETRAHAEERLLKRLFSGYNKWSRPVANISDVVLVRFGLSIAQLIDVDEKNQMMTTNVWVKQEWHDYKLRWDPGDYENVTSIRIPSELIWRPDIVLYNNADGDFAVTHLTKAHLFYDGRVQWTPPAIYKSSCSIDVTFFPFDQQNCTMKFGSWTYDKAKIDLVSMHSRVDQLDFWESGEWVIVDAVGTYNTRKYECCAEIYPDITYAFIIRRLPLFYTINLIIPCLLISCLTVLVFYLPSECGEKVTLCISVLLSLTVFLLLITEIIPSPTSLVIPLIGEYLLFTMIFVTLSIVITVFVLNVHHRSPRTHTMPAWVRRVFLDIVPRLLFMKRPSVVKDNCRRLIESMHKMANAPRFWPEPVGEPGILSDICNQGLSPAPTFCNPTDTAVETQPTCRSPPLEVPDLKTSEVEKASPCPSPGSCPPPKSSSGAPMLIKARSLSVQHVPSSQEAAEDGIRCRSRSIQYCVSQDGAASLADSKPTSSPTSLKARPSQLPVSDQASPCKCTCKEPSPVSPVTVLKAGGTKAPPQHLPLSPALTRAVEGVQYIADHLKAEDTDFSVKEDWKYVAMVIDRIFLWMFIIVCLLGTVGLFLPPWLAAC", "sequence (P12390 whole entry)": "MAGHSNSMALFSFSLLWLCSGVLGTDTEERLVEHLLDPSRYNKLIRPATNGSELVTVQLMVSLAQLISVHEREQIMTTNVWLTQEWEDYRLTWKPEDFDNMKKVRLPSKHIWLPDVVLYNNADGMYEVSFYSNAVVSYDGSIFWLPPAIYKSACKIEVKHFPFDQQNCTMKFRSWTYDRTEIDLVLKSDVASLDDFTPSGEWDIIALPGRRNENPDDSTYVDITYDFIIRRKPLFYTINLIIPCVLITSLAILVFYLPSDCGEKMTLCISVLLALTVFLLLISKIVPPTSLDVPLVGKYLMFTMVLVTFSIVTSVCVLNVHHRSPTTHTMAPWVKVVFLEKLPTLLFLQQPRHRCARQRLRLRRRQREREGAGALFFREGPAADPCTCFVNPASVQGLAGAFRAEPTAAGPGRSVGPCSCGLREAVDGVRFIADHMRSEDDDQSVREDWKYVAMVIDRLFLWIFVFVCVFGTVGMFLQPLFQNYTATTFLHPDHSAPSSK", "assay": "Displacement of [3H]epibatidine from alpha-4-beta-2 nAchR in rat brain cortex membrane"}, "[3]": {"biological_target": "T1, Adrenergic receptor alpha-2 (Rattus norvegicus, UniProt P22086+P19328+P22909)", "T1 sequence (P22086 whole entry)": "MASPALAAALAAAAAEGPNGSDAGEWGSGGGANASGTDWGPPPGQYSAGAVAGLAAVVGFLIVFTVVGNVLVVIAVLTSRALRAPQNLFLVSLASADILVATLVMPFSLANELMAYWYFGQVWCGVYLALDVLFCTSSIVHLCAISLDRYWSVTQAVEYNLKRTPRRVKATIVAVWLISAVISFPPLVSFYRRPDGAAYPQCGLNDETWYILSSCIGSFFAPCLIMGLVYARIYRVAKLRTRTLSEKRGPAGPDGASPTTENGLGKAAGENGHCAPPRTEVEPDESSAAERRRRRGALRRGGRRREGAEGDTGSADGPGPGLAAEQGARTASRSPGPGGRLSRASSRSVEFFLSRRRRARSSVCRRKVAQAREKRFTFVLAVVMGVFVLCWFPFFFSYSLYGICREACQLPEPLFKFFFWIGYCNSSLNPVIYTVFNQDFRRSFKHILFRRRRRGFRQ", "T1 sequence (P19328 whole entry)": "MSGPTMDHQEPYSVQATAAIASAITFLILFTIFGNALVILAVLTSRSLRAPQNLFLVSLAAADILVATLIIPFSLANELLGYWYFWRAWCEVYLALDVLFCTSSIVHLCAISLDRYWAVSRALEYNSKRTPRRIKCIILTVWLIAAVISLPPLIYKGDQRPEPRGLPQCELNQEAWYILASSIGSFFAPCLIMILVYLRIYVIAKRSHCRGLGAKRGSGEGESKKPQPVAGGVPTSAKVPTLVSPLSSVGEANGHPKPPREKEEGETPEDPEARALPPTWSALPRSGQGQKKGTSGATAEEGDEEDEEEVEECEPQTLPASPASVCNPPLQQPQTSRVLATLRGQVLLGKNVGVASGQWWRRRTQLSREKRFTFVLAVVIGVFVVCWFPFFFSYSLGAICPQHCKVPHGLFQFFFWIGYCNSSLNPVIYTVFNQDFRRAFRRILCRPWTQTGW", "T1 sequence (P22909 whole entry)": "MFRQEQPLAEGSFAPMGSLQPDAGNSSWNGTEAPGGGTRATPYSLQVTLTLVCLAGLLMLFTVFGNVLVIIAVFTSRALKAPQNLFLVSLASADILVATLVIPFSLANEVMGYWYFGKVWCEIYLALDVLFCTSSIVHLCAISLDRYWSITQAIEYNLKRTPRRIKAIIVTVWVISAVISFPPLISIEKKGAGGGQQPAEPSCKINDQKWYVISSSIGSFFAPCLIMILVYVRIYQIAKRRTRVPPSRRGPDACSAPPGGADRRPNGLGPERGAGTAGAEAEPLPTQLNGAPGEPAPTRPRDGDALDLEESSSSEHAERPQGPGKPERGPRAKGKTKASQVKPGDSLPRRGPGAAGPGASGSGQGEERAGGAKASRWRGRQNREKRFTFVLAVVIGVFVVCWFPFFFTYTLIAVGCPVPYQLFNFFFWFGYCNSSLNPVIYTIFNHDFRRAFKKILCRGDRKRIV", "assay": "Displacement of [3H]RS 79948-197 from alpha-2 adrenergic receptor in rat brain cortex membrane"}}, "data": [{"compound": "CN1CCC[C@H]1[C@H]1CNC(=O)O1", "values": [{"measurement": "Ki", "setting": "[1]", "result": 100, "unit": "µM"}, {"measurement": "Ki", "setting": "[2]", "result": 35, "unit": "µM"}]}, {"compound": "CN1CCC[C@H]1[C@@H]1COc2ccccc2O1", "values": [{"measurement": "Ki", "setting": "[1]", "result": 21, "unit": "µM"}, {"measurement": "Ki", "setting": "[2]", "result": 0.26, "unit": "µM"}]}, {"compound": "CN1CCC[C@@H]1[C@@H]1COc2ccccc2O1.Cl", "values": [{"measurement": "Ki", "setting": "[1]", "result": 14.8, "unit": "µM"}, {"measurement": "Ki", "setting": "[3]", "result": 6.67, "unit": "µM"}, {"measurement": "Ki", "setting": "[2]", "result": 43.8, "unit": "µM"}]}, {"compound": "Cl.c1ccc2c(c1)OC[C@@H]([C@@H]1CCCN1)O2", "values": [{"measurement": "Ki", "setting": "[1]", "result": 36, "unit": "µM"}, {"measurement": "Ki", "setting": "[3]", "result": 1.35, "unit": "µM"}, {"measurement": "Ki", "setting": "[2]", "result": 2.1, "unit": "µM"}]}, {"compound": "CN1CCC[C@H]1[C@H]1COc2ccccc2O1.Cl", "values": [{"measurement": "Ki", "setting": "[1]", "result": 14.6, "unit": "µM"}, {"measurement": "Ki", "setting": "[3]", "result": 1.67, "unit": "µM"}, {"measurement": "Ki", "setting": "[2]", "result": 0.47, "unit": "µM"}]}, {"compound": "CN1CCC[C@@H]1[C@@H]1CNC(=O)O1", "values": [{"measurement": "Ki", "setting": "[1]", "result": 43, "unit": "µM"}, {"measurement": "Ki", "setting": "[2]", "result": 37, "unit": "µM"}]}, {"compound": "CN1CCC[C@@H]1[C@H]1CNC(=O)O1", "values": [{"measurement": "Ki", "setting": "[1]", "result": 100, "unit": "µM"}, {"measurement": "Ki", "setting": "[2]", "result": 40, "unit": "µM"}]}, {"compound": "Cl.c1ccc2c(c1)OC[C@@H]([C@H]1CCCN1)O2", "values": [{"measurement": "Ki", "setting": "[1]", "result": 27, "unit": "µM"}, {"measurement": "Ki", "setting": "[3]", "result": 6.33, "unit": "µM"}, {"measurement": "Ki", "setting": "[2]", "result": 11.6, "unit": "µM"}]}, {"compound": "Cl.c1ccc2c(c1)OC[C@H]([C@H]1CCCN1)O2", "values": [{"measurement": "Ki", "setting": "[1]", "result": 14.7, "unit": "µM"}, {"measurement": "Ki", "setting": "[3]", "result": 14, "unit": "µM"}, {"measurement": "Ki", "setting": "[2]", "result": 88, "unit": "µM"}]}, {"compound": "CN1CCC[C@H]1[C@@H]1CNC(=O)O1", "values": [{"measurement": "Ki", "setting": "[1]", "result": 21, "unit": "µM"}, {"measurement": "Ki", "setting": "[2]", "result": 2.7, "unit": "µM"}]}, {"compound": "CN1CCC[C@@H]1[C@H]1COc2ccccc2O1", "values": [{"measurement": "Ki", "setting": "[1]", "result": 35, "unit": "µM"}, {"measurement": "Ki", "setting": "[2]", "result": 12.5, "unit": "µM"}]}, {"compound": "Cl.c1ccc2c(c1)OC[C@H]([C@@H]1CCCN1)O2", "values": [{"measurement": "Ki", "setting": "[1]", "result": 32.2, "unit": "µM"}, {"measurement": "Ki", "setting": "[3]", "result": 0.64, "unit": "µM"}, {"measurement": "Ki", "setting": "[2]", "result": 14.4, "unit": "µM"}]}]}
